# Data taken from ChEMBL document CHEMBL4834480, “Discovery of 3,5-Dimethyl-4-Sulfonyl-1H-Pyrrole-Based Myeloid Cell Leukemia 1 Inhibitors with High Affinity, Selectivity, and Oral Bioavailability” (J Med Chem, 2021).
# Active and inactive are the calls of the source. The rule behind the calls is not given here.
# Tests used:
# [1] = Water solubility of the compound; assay type: physicochemical
# [2] = target: Apoptosis regulator Bcl-2 (Homo sapiens, UniProt P10415); experiment: Binding affinity to human partial length BCL2 (M1 to D211 residues) expressed in bacterial expression system by BCL2SCAN assay
# Homo sapiens = species on record: Homo sapiens; experiment: Selectivity ratio of Kd for human partial length BCL2 (M1 to D211 residues) expressed in bacterial expression system to Kd for human partial length MCL1 ([…] to R329 residues) expressed in bacterial expression system
# MV4-11 [3] = experiment: Antiproliferative activity against human MV4-11 cells assessed as decrease in cell viability measured after 72 hrs by MTT assay; assay type: functional, cell-based; conditions: MV4-11, 72 h
# SK-BR-3 = experiment: Antiproliferative activity against human SK-BR-3 cells assessed as decrease in cell viability measured after 72 hrs by MTT assay; assay type: functional, cell-based; conditions: SK-BR-3, 72 h
# NCI-H23 = experiment: Antiproliferative activity against human NCI-H23 cells assessed as decrease in cell viability measured after 72 hrs by MTT assay; assay type: functional, cell-based; conditions: NCI-H23, 72 h
# NCI-H929 = experiment: Induction of apoptosis in human NCI-H929 cells assessed as upregulation of cleaved PARP measured after 48 hrs by Western blot analysis; assay type: functional, cell-based; conditions: dose microM <=5, time 48.0 hrs
# K562 = experiment: Induction of apoptosis in human K562 cells assessed as upregulation of cleaved PARP up to 5 uM measured after 48 hrs by Western blot analysis; assay type: functional, cell-based; conditions: dose microM <=5, time 48.0 hrs
# CYP1A2 = target: T1, CYP1A2 (Homo sapiens, UniProt P05177); experiment: Inhibition of CYP1A2 (unknown origin) at 10 uM preincubated for 5 min followed by NADPH addition and measured after 20 mins by LC-MS/MS analysis relative to control; assay type: ADME; conditions: time 25 min
# T1 sequence (P05177 whole entry): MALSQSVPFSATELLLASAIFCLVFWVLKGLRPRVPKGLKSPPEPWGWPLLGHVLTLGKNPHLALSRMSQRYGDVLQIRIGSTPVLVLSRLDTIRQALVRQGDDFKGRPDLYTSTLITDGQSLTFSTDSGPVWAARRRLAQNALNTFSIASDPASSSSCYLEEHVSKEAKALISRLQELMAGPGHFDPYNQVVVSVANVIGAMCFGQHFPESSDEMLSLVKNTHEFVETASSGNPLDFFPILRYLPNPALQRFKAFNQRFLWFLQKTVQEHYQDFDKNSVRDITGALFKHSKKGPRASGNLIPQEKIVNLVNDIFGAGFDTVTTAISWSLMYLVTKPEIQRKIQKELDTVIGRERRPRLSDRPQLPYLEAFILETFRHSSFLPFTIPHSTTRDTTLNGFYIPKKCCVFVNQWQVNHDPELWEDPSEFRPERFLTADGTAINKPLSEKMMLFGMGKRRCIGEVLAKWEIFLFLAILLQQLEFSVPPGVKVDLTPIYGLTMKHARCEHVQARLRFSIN
# CYP2C9 = CYP2C9 (Homo sapiens, UniProt P11712); experiment: Inhibition of CYP2C9 (unknown origin) at 10 uM preincubated for 5 min followed by NADPH addition and measured after 20 mins by LC-MS/MS analysis relative to control; assay type: ADME; conditions: time 25 min
# CYP3A4 = CYP3A4 (Homo sapiens, UniProt P08684); experiment: Inhibition of CYP3A4 (unknown origin) at 10 uM preincubated for 5 min followed by NADPH addition and measured after 20 mins by LC-MS/MS analysis relative to control; assay type: ADME; conditions: time 25 min
# [4] = Stability of the compound in simulated intestinal fluid assessed as parent compound remaining measured after 6 hrs; assay type: ADME; conditions: read-out: Stabilty
# [5] = Stability of the compound in simulated gastric fluid assessed as parent compound remaining measured after 6 hrs; assay type: ADME; conditions: read-out: Stabilty
# [6] = Stability in rat liver microsomes assessed as parent compound remaining preincubated for 5 mins followed by NADPH addition and measured after 30 mins by LC-MS/MS analysis; assay type: ADME, Microsome; conditions: time 35 min, read-out: Stabilty
# [7] = Half life in human liver microsomes; assay type: ADME, Microsome
# [8] = Intrinsic clearance in human liver microsomes; assay type: ADME, Microsome; conditions: read-out: CLH
# [9] = Stability in human liver microsomes assessed as parent compound remaining preincubated for 5 mins followed by NADPH addition and measured after 30 mins by LC-MS/MS analysis; assay type: ADME, Microsome; conditions: time 35 min, read-out: Stabilty
# P-gp = P-gp (Homo sapiens, UniProt P08183); experiment: Substrate activity at P-gp in human Caco-2 cells assessed as permeability across apical to basolateral membrane by LC-MS/MS analysis; assay type: ADME, cell-based; conditions: read-out: permeability
# [10] = Clearance in Sprague-Dawley rat at 3 mg/kg, iv measured up to 24 hrs by LC-MS/MS analysis; assay type: ADME, organism-based; conditions: in vivo
# [11] = Apparent volume of distribution in Sprague-Dawley rat at 3 mg/kg, iv measured up to 24 hrs by LC-MS/MS analysis; assay type: ADME, organism-based; conditions: in vivo, read-out: Vz
# [12] = Cmax in Sprague-Dawley rat at 10 mg/kg, po measured up to 24 hrs by LC-MS/MS analysis; assay type: ADME, organism-based; set-up: route oral, dose 10 mg/kg, time <=24; conditions: in vivo
# [13] = AUCt in Sprague-Dawley rat at 10 mg/kg, po measured up to 24 hrs by LC-MS/MS analysis; assay type: ADME, organism-based; set-up: route oral, dose 10 mg/kg, time <=24; conditions: in vivo
# [14] = Toxicity in BALB/c nude mouse xenografted with human MV4-11 cells assessed as effect on body weight at 20 mg/kg, ip administered every two days for 14 days; assay type: organism-based; conditions: in vivo, 336 h, time 14 day
# [15] = Toxicity in BALB/c nude mouse xenografted with human MV4-11 cells assessed as effect on heart weight at 20 mg/kg, ip administered every two days for 14 days; assay type: organism-based; conditions: in vivo, 336 h, time 14 day
# [16] = Toxicity in BALB/c nude mouse xenografted with human MV4-11 cells assessed as effect on kidney weight at 60 mg/kg, po administered every two days for 14 days; assay type: organism-based; conditions: in vivo, 336 h, time 14 day
# MV4-11 [17] = experiment: Antitumor activity against human MV4-11 cells xenografted in BALB/c nude mouse assessed as induction of tumor necrosis at 20 mg/kg, ip administered every two days for 14 days by hematoxyin-eosin staining based analysis; assay type: functional, organism-based; conditions: time 14.0 day
# MV4-11 [18] = experiment: Antitumor activity against human MV4-11 cells xenografted in BALB/c nude mouse assessed as induction of tumor necrosis at 60 mg/kg, po administered every two days for 14 days by hematoxyin-eosin staining based analysis; assay type: functional, organism-based; conditions: time 14.0 day
# [19] = Toxicity in BALB/c nude mouse xenografted with human MV4-11 cells assessed as effect on heart at 60 mg/kg, po administered every two days for 14 days by hematoxyin-eosin staining based analysis; assay type: organism-based; conditions: in vivo, 336 h, time 14 day
# [20] = Toxicity in BALB/c nude mouse xenografted with human MV4-11 cells assessed as effect on liver at 60 mg/kg, po administered every two days for 14 days by hematoxyin-eosin staining based analysis; assay type: organism-based; conditions: in vivo, 336 h, time 14 day
# [21] = Toxicity in BALB/c nude mouse xenografted with human MV4-11 cells assessed as effect on kidney at 60 mg/kg, po administered every two days for 14 days by hematoxyin-eosin staining based analysis; assay type: organism-based; conditions: in vivo, 336 h, time 14 day
# [22] = Toxicity in BALB/c nude mouse xenografted with human MV4-11 cells assessed as effect on liver at 20 mg/kg, ip administered every two days for 14 days by hematoxyin-eosin staining based analysis; assay type: organism-based; conditions: in vivo, 336 h, time 14 day
# MV4-11 [23] = experiment: Induction of apoptosis in human MV4-11 cells xenografted in BALB/c nude mouse assessed as induction of PARP cleavage at 20 mg/kg, ip administered every two days for 14 days by Western blot analysis; assay type: functional, organism-based; conditions: time 14.0 day
# Apoptosis regulator Bcl-2, sequence (P10415 whole entry, the tested form may be a part): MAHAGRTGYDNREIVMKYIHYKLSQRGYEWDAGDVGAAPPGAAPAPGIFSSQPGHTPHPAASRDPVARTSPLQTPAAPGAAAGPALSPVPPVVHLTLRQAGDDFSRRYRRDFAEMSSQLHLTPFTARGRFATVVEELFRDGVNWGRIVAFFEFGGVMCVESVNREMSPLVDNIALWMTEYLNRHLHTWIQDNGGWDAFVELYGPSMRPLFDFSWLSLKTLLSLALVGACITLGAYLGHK
# P-gp, sequence (P08183 whole entry): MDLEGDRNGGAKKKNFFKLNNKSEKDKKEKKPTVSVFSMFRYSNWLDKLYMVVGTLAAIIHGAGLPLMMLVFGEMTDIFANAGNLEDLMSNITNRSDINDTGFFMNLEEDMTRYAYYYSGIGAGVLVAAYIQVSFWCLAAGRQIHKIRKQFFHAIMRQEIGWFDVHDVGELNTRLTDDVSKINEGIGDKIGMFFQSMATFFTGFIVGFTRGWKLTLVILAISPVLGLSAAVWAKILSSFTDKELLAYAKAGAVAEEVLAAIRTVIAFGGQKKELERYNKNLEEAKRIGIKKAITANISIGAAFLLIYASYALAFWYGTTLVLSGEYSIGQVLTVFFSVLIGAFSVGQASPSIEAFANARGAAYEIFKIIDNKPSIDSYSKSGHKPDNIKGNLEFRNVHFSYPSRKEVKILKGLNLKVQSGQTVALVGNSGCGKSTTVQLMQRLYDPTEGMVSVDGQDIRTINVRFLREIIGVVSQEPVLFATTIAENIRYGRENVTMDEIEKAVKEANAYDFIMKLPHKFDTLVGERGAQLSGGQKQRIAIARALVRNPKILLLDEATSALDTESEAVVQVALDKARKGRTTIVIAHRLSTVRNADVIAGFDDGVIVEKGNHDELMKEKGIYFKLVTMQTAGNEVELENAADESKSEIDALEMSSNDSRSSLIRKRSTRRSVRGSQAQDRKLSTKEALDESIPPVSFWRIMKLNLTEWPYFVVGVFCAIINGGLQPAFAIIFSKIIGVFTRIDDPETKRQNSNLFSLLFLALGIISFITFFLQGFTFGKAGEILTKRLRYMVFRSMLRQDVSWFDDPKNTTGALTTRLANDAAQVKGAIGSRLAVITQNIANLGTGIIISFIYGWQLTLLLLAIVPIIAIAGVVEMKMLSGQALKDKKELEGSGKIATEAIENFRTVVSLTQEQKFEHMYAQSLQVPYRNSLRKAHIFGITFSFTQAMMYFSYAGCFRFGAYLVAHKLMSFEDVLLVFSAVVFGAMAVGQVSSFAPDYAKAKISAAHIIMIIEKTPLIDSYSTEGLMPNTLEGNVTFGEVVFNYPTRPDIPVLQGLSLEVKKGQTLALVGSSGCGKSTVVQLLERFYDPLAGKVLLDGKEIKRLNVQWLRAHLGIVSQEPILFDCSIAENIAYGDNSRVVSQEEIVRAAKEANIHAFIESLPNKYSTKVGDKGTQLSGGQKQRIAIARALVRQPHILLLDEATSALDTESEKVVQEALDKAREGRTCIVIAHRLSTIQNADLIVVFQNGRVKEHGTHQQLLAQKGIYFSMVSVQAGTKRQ
# CYP2C9, sequence (P11712 whole entry): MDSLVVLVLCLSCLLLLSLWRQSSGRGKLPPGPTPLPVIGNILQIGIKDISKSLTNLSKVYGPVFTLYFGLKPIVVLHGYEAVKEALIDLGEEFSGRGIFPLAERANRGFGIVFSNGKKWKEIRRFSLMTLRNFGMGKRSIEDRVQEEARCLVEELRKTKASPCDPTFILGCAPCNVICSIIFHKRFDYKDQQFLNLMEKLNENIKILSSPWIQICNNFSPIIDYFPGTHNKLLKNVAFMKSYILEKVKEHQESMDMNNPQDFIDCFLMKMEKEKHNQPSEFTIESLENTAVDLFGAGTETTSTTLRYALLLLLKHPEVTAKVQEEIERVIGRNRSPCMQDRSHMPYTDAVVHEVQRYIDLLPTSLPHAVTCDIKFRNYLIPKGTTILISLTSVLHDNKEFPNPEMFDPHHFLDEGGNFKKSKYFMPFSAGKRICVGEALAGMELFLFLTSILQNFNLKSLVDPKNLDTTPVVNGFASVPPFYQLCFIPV
# CYP3A4, sequence (P08684 whole entry): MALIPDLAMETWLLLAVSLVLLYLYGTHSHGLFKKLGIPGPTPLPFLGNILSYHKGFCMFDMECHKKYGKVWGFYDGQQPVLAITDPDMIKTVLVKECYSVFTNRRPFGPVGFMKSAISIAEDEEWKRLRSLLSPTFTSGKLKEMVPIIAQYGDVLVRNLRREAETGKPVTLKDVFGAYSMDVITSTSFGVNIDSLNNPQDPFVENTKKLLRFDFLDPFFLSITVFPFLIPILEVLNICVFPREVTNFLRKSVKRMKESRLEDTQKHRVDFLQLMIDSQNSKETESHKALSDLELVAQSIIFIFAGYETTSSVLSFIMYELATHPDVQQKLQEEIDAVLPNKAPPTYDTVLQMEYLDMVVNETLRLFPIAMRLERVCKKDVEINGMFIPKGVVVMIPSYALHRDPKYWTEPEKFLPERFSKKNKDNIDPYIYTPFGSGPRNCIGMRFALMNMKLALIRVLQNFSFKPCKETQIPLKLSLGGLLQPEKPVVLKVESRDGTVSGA
compound,measurement,setting,value
CC(=O)c1ccc(S(=O)(=O)c2c(C)c(C(=O)O)n(CCCOc3cc(C)c(Cl)c(C)c3)c2C)cc1,solubility,[1],32.3 µg/mL
same,Kd,[2],> 10000 nM
same,Selectivity ratio,Homo sapiens,> 40000
same,IC50,MV4-11 [3],700 nM
same,IC50,SK-BR-3,2840 nM
same,IC50,NCI-H23,3020 nM
same,Activity,NCI-H929,Dose-Dependent Effect
same,Activity,K562,inactive
same,"inhibition at 20 min, 10 µM",CYP1A2,19.3%
same,"inhibition at 20 min, 10 µM",CYP2C9,26%
same,"inhibition at 20 min, 10 µM",CYP3A4,29.4%
same,remaining at 6 h,[4],85.2%
same,remaining at 6 h,[5],84.5%
same,remaining at 0.5 h,[6],58.1%
same,half-life,[7],49.8 min
same,microsomal CLint,[8],67.5 µL/min/mg
same,remaining at 0.5 h,[9],64%
same,Papp A→B,P-gp,3.62 ×10⁻⁶ cm/s
same,clearance,[10],15.2 mL/min/kg
same,Vd,[11],3.08 L/kg
same,Cmax,[12],2010 ng/mL
same,AUC(0-t) at 24 h,[13],4530 ng·h/mL
same,Activity,[14],Non-Toxic
same,Activity,[15],Non-Toxic
same,Activity,[16],Non-Toxic
same,Activity,MV4-11 [17],Active
same,Activity,MV4-11 [18],Active
same,Activity,[19],Non-Toxic
same,Activity,[20],Non-Toxic
same,Activity,[21],Non-Toxic
same,Activity,[22],Non-Toxic
same,Activity,MV4-11 [23],Active
